15 compounds from patent US20240409585A1, “MACROCYCLIC IMMUNOMODULATORS” (priority 2021, published 2024) can be followed below.

SMILES strings stand for the structures. Bridge positions count the residues as written; N and C are the ends. Square brackets hold non-standard residues; d marks the D form. Peptide text beside a SMILES is read from it. * marks the point of attachment. ξ: configuration not given here. Bip(4'-COOH) = N[C@@H](Cc1ccc(-c2ccc(C(=O)O)cc2)cc1)C(=O)O; Trp(7-Cl) = N[C@@H](Cc1c[nH]c2c(Cl)cccc12)C(=O)O; Phe(4-COOH) = N[C@@H](Cc1ccc(C(=O)O)cc1)C(=O)O; Bip = N[C@@H](Cc1ccc(-c2ccccc2)cc1)C(=O)O; Phe(2-CN) = N#Cc1ccccc1C[C@H](N)C(=O)O; Phe(3-Me) = Cc1cccc(C[C@H](N)C(=O)O)c1; Phe(4-F) = N[C@@H](Cc1ccc(F)cc1)C(=O)O; hTyr = N[C@@H](CCc1ccc(O)cc1)C(=O)O; Val(3-OH) = CC(C)(O)[C@H](N)C(=O)O; Cha = N[C@@H](CC1CCCCC1)C(=O)O; Cit = NC(=O)NCCC[C@H](N)C(=O)O; Ile(3ξ) = CCC(C)[C@H](N)C(=O)O; Thr(3ξ) = CC(O)[C@H](N)C(=O)O; Pip = O=C(O)[C@@H]1CCCCN1; hSer = N[C@@H](CCO)C(=O)O; Carboxymethyl = O=C(O)C*; NMeA = CN[C@@H](C)C(=O)O; Nle = CCCC[C@H](N)C(=O)O; Orn = NCCC[C@H](N)C(=O)O; dNMeA = CN[C@H](C)C(=O)O; Dab = NCC[C@H](N)C(=O)O; Dap = NC[C@H](N)C(=O)O

T1 sequence (Q15116 25-288): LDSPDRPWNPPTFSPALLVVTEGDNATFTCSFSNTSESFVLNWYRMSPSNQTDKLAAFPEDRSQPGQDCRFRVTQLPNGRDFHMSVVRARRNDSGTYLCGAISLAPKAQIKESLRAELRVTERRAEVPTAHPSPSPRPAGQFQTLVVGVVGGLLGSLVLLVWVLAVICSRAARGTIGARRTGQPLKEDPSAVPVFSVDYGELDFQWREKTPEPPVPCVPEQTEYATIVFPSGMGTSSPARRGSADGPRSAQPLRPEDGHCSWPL

This assay concerns the target T1, PE-labeled human PD-L1-Ig binding to Jurkat cell line over-expressing human PD-1 (Jurkat-PD-1) (Homo sapiens, UniProt Q15116).
T1 construct: expressed in transfected cells; host or cells: Jurkat
As to the kind of experiment: Jurkat-PD-1 Cell Binding High-Content Screening Assay (CBA): Method 1. As to conditions: Jurkat-hPD-1 cells, PE-labeled PD-L1-Ig 20 nM final; read-out: Jurkat HPDL1 PD1 IC50 (uM) (Method 1).
In the case of `CC(C)C[C@@H]1NC(=O)[C@H](CCCNC(=N)N)NC(=O)[C@@H](CC(C)C)NC(=O)[C@H](C)N(C)C(=O)[C@H](CCCNC(=N)N)NC(=O)[C@H](Cc2ccc(-c3ccccc3)cc2)NC(=O)[C@H](C(C)C)NC(=O)[C@H](Cc2c[nH]c3ccccc23)NC(=O)[C@H](CC(=O)O)NC(=O)[C@H](Cc2ccc(O)cc2)NC(=O)[C@H](CCC(N)=O)NC(=O)CSC[C@@H](C(=O)N[C@@H](C)C(N)=O)NC(=O)[C@H]([C@@H](C)O)NC(=O)[C@H](C(C)C)NC1=O` [Compound 1046] ({CH2CO}-QYDWV[Bip]R[NMeA][dL]RLVTCA-NH2; thioether N-14), the IC50 – broadly, the midpoint of a concentration-inhibition curve – was 0.1 µM. On to `Cc1cccc(C[C@@H]2NC(=O)[C@H](CC(=O)O)NC(=O)[C@H](Cc3ccc(C(=O)O)cc3)NC(=O)[C@H](Cc3ccc(F)cc3)NC(=O)CSC[C@@H](C(=O)N[C@@H](CCN)C(N)=O)NC(=O)[C@H](CCC(=O)O)NC(=O)[C@H](C(C)(C)O)NC(=O)[C@H](CC3CCCCC3)NC(=O)[C@H](CCN)NC(=O)[C@@H](CC(C)C)NC(=O)[C@H](C)N(C)C(=O)[C@H](Cc3ccc(C(=O)O)cc3)NC(=O)[C@H](Cc3ccc(-c4ccccc4)cc3)NC(=O)[C@H](Cc3ccc(C(=O)O)cc3)NC2=O)c1` [Compound 2207] ({CH2CO}-[Phe(4-F)][Phe(4-COOH)]D[Phe(3-Me)][Phe(4-COOH)][Bip][Phe(4-COOH)][NMeA][dL][Dab][Cha][Val(3-OH)]EC[Dab]-NH2; thioether N-14), for which the concentration for half-maximal inhibition (IC50) came out at 0.01 µM. The result for `CC(C)C[C@@H]1NC(=O)[C@H](CCN)NC(=O)[C@@H](CC(C)C)NC(=O)[C@H](C)N(C)C(=O)[C@H](CC(=O)O)NC(=O)[C@H](Cc2ccc(-c3ccccc3)cc2)NC(=O)[C@H](C(C)C)NC(=O)[C@H](Cc2c[nH]c3ccccc23)NC(=O)[C@H](CC(=O)O)NC(=O)[C@H](Cc2ccc(O)cc2)NC(=O)[C@H](CC(N)=O)NC(=O)CSC[C@@H](C(=O)N[C@@H](C)C(N)=O)NC(=O)[C@H]([C@@H](C)O)NC(=O)[C@H](C(C)C)NC1=O` [Compound 1260] ({CH2CO}-NYDWV[Bip]D[NMeA][dL][Dab]LVTCA-NH2; thioether N-14) reads 0.17 µM; that for `CC(C)C[C@@H]1NC(=O)[C@H](CCO)NC(=O)[C@@H](CC(C)C)NC(=O)[C@H](C)N(C)C(=O)[C@H](CCCNC(N)=O)NC(=O)[C@H](Cc2ccc(-c3ccccc3)cc2)NC(=O)[C@H](C(C)C)NC(=O)[C@H](Cc2c[nH]c3ccccc23)NC(=O)[C@H](CC(=O)O)NC(=O)[C@H](Cc2ccc(O)cc2)NC(=O)[C@H](Cc2ccccc2)NC(=O)CSC[C@@H](C(=O)N[C@@H](C)C(N)=O)NC(=O)[C@H](C(C)O)NC(=O)[C@H](C(C)C)NC1=O` (stereo partly drawn) [Compound 2032] ({CH2CO}-FYDWV[Bip][Cit][NMeA][dL][hSer]LV[Thr(3ξ)]CA-NH2; thioether N-14), 0.05 µM; that for `CC(C)C[C@@H]1NC(=O)[C@H](CCN)NC(=O)[C@@H](CC(C)C)NC(=O)[C@H](C)N(C)C(=O)[C@H](CCCNC(=N)N)NC(=O)[C@H](Cc2ccc(-c3ccccc3)cc2)NC(=O)[C@H](C(C)C)NC(=O)[C@H](Cc2c[nH]c3ccccc23)NC(=O)[C@H](CC(=O)O)NC(=O)[C@H](CCc2ccc(O)cc2)NC(=O)[C@H](CC(N)=O)NC(=O)CSC[C@@H](C(=O)N[C@@H](C)C(N)=O)NC(=O)[C@H]([C@@H](C)O)NC(=O)[C@H](C(C)C)NC1=O` [Compound 1354] ({CH2CO}-N[hTyr]DWV[Bip]R[NMeA][dL][Dab]LVTCA-NH2; thioether N-14), 0.02 µM.

Regarding `CCC(C)[C@@H]1NC(=O)[C@H](Cc2ccc(-c3ccccc3)cc2)NC(=O)[C@H](C(C)C)NC(=O)[C@H](Cc2c[nH]c3ccccc23)NC(=O)[C@H](CC(=O)O)NC(=O)[C@H](Cc2ccc(OCC(=O)O)cc2)NC(=O)[C@H](C(C)O)NC(=O)CSC[C@@H](C(=O)N[C@H](CC(N)=O)C(N)=O)NC(=O)[C@H](CO)NC(=O)[C@H](C(C)C)NC(=O)[C@H](CC2CCCCC2)NC(=O)[C@H](CCN)NC(=O)[C@@H](CC(C)C)NC(=O)[C@H](C)N(C)C1=O` (stereo partly drawn) [Compound 2117] ({CH2CO}-[Thr(3ξ)]Y(Carboxymethyl)DWV[Bip][Ile(3ξ)][NMeA][dL][Dab][Cha]VSC[dN]-NH2; thioether N-14), the IC50 was determined as 0.02 µM. The same measure for `CC(C)C[C@@H]1NC(=O)[C@H](CCCNC(=N)N)NC(=O)[C@@H](CC(C)C)NC(=O)[C@H](C)N(C)C(=O)[C@H](CCCNC(=N)N)NC(=O)[C@H](Cc2ccc(-c3ccccc3)cc2)NC(=O)[C@H](C(C)C)NC(=O)[C@H](Cc2c[nH]c3c(Cl)cccc23)NC(=O)[C@H](CC(=O)O)NC(=O)[C@H](Cc2ccc(O)cc2)NC(=O)[C@H](Cc2ccccc2)NC(=O)CSC[C@@H](C(=O)N[C@@H](C)C(N)=O)NC(=O)[C@H]([C@@H](C)O)NC(=O)[C@H](C(C)C)NC1=O` [Compound 1098] ({CH2CO}-FYD[Trp(7-Cl)]V[Bip]R[NMeA][dL]RLVTCA-NH2; thioether N-14): 0.13 µM; for `CCCC[C@@H]1NC(=O)[C@H](CCCNC(=N)N)NC(=O)[C@@H](CC(C)C)NC(=O)[C@H](C)N(C)C(=O)[C@H](C(C)C)NC(=O)[C@H](Cc2ccc(-c3ccccc3)cc2)NC(=O)[C@H](C(C)C)NC(=O)[C@H](Cc2c[nH]c3ccccc23)NC(=O)[C@H](CC(=O)O)NC(=O)[C@H](Cc2ccc(O)cc2)NC(=O)[C@H](CN)NC(=O)CSC[C@@H](C(=O)N[C@@H](C)C(N)=O)NC(=O)[C@H]([C@@H](C)O)NC(=O)[C@H](C(C)C)NC1=O` [Compound 1500] ({CH2CO}-[Dap]YDWV[Bip]V[NMeA][dL]R[Nle]VTCA-NH2; thioether N-14): 0.08 µM.

For the compound `CC(C)C[C@@H]1NC(=O)[C@H](Cc2c[nH]c3ccccc23)NC(=O)[C@H](CC(=O)O)NC(=O)[C@H](Cc2ccc(OCC(=O)O)cc2)NC(=O)[C@H](Cc2ccc(-c3ccc(C(=O)O)cc3)cc2)NC(=O)CSC[C@@H](C(=O)N[C@@H](CC(N)=O)C(N)=O)NC(=O)[C@H](CO)NC(=O)[C@H](C(C)C)NC(=O)[C@H](CC(C)C)NC(=O)[C@H](CCN)NC(=O)[C@@H](CC(C)C)NC(=O)[C@H](C)N(C)C(=O)[C@H](Cc2cnc[nH]2)NC(=O)[C@H](Cc2ccc(-c3ccccc3)cc2)NC1=O` [Compound 2097] ({CH2CO}-[Bip(4'-COOH)]Y(Carboxymethyl)DWL[Bip]H[NMeA][dL][Dab]LVSCN-NH2; thioether N-14), the concentration for half-maximal inhibition (IC50) is 0.03 µM. For `CCCC[C@@H]1NC(=O)[C@H](CCCNC(=N)N)NC(=O)[C@@H](CC(C)C)NC(=O)[C@H](C)N(C)C(=O)[C@H](C(C)C)NC(=O)[C@H](Cc2ccc(-c3ccccc3)cc2)NC(=O)[C@H](C(C)C)NC(=O)[C@H](Cc2c[nH]c3ccccc23)NC(=O)[C@H](CC(=O)O)NC(=O)[C@H](Cc2ccc(O)cc2)NC(=O)[C@H](CC(N)=O)NC(=O)CSC[C@@H](C(=O)N[C@@H](C)C(N)=O)NC(=O)[C@H]([C@@H](C)O)NC(=O)[C@H](C(C)C)NC1=O` [Compound 1293] ({CH2CO}-NYDWV[Bip]V[NMeA][dL]R[Nle]VTCA-NH2; thioether N-14), the IC50 stood at 0.07 µM. Take `CC(C)C[C@@H]1NC(=O)[C@H](CCN)NC(=O)[C@@H](CC(C)C)NC(=O)[C@@H]2CCCCN2C(=O)[C@H](C(C)C)NC(=O)[C@H](Cc2ccc(-c3ccccc3)cc2)NC(=O)[C@H](C(C)C)NC(=O)[C@H](Cc2c[nH]c3ccccc23)NC(=O)[C@H](CC(=O)O)NC(=O)[C@H](Cc2ccc(O)cc2)NC(=O)[C@H](CC(N)=O)NC(=O)CSC[C@@H](C(=O)N[C@@H](C)C(N)=O)NC(=O)[C@H]([C@@H](C)O)NC(=O)[C@H](C(C)C)NC1=O` [Compound 1298] ({CH2CO}-NYDWV[Bip]V[Pip][dL][Dab]LVTCA-NH2; thioether N-14): the 50% inhibitory concentration (IC50) amounted to 0.03 µM. As to `CC(C)C[C@@H]1NC(=O)[C@H](Cc2c[nH]c3ccccc23)NC(=O)[C@H](CC(=O)O)NC(=O)[C@H](Cc2ccc(O)cc2)NC(=O)[C@H](Cc2ccccc2)NC(=O)CSC[C@@H](C(=O)N[C@@H](C)C(=O)N[C@@H](CCCN)C(=O)O)NC(=O)[C@H](CO)NC(=O)[C@H](C(C)C)NC(=O)[C@H](CC(C)C)NC(=O)[C@H](CC(N)=O)NC(=O)[C@@H](CC(C)C)NC(=O)[C@H](C)N(C)C(=O)[C@H](C(C)C)NC(=O)[C@H](Cc2ccc(-c3ccccc3)cc2)NC1=O` [Compound 2238] ({CH2CO}-FYDWL[Bip]V[NMeA][dL]NLVSCA[Orn]-OH; thioether N-14), the concentration for half-maximal inhibition (IC50) turned out to be 0.01 µM. The result for `CC(C)C[C@@H]1NC(=O)[C@H](Cc2c[nH]c3ccccc23)NC(=O)[C@H](CC(=O)O)NC(=O)[C@H](Cc2ccc(O)cc2)NC(=O)[C@H](Cc2ccccc2)NC(=O)CSC[C@@H](C(=O)NCC(N)=O)NC(=O)[C@H](CO)NC(=O)[C@H](C(C)C)NC(=O)[C@H](CC(C)C)NC(=O)[C@H](CC(N)=O)NC(=O)CNC(=O)[C@@H](C)N(C)C(=O)[C@H](C(C)C)NC(=O)[C@H](Cc2ccc(-c3ccccc3)cc2)NC1=O` [Compound 1721] ({CH2CO}-FYDWL[Bip]V[dNMeA]GNLVSCG-NH2; thioether N-14) reads 0.24 µM.

Regarding `Cc1cccc(C[C@@H]2NC(=O)[C@H](CC(=O)O)NC(=O)[C@H](Cc3ccc(O)cc3)NC(=O)[C@H](CN)NC(=O)CSC[C@@H](C(=O)N[C@@H](C)C(N)=O)NC(=O)[C@H]([C@@H](C)O)NC(=O)[C@H](C(C)C)NC(=O)[C@H](CC(C)C)NC(=O)[C@H](CCN)NC(=O)[C@@H](CC(C)C)NC(=O)[C@H](C)N(C)C(=O)[C@H](CCCNC(N)=O)NC(=O)[C@H](Cc3ccc(-c4ccccc4)cc3)NC(=O)[C@H](C(C)C)NC2=O)c1` [Compound 1422] ({CH2CO}-[Dap]YD[Phe(3-Me)]V[Bip][Cit][NMeA][dL][Dab]LVTCA-NH2; thioether N-14), the IC50 worked out at 0.05 µM. `CC(C)C[C@@H]1NC(=O)[C@H](CCN)NC(=O)[C@@H](CC(C)C)NC(=O)[C@H](C)N(C)C(=O)[C@H](CCCNC(=N)N)NC(=O)[C@H](Cc2ccc(-c3ccccc3)cc2)NC(=O)[C@H](C(C)C)NC(=O)[C@H](Cc2ccccc2C#N)NC(=O)[C@H](CC(=O)O)NC(=O)[C@H](Cc2ccc(O)cc2)NC(=O)[C@H](Cc2ccccc2)NC(=O)CSC[C@@H](C(=O)N[C@@H](C)C(N)=O)NC(=O)[C@H]([C@@H](C)O)NC(=O)[C@H](C(C)C)NC1=O` [Compound 1204] ({CH2CO}-FYD[Phe(2-CN)]V[Bip]R[NMeA][dL][Dab]LVTCA-NH2; thioether N-14): the IC50 is 0.33 µM.
